This is an account of results in US20170334899A1, “AMINO-SUBSTITUTED ISOTHIAZOLES” (Bayer Pharma Aktiengesellschaft, priority 2014, published 2017).

SMILES strings stand for the structures.

In the assay the target is T1, human kinase Mps-1 (Homo sapiens, UniProt P33981).
T1 construct: N-terminally GST-tagged human full length recombinant Mps-1 kinase; GST (N); purchased Invitrogen, Karslruhe, Germany PV4071
T1 sequence (P33981 1-857): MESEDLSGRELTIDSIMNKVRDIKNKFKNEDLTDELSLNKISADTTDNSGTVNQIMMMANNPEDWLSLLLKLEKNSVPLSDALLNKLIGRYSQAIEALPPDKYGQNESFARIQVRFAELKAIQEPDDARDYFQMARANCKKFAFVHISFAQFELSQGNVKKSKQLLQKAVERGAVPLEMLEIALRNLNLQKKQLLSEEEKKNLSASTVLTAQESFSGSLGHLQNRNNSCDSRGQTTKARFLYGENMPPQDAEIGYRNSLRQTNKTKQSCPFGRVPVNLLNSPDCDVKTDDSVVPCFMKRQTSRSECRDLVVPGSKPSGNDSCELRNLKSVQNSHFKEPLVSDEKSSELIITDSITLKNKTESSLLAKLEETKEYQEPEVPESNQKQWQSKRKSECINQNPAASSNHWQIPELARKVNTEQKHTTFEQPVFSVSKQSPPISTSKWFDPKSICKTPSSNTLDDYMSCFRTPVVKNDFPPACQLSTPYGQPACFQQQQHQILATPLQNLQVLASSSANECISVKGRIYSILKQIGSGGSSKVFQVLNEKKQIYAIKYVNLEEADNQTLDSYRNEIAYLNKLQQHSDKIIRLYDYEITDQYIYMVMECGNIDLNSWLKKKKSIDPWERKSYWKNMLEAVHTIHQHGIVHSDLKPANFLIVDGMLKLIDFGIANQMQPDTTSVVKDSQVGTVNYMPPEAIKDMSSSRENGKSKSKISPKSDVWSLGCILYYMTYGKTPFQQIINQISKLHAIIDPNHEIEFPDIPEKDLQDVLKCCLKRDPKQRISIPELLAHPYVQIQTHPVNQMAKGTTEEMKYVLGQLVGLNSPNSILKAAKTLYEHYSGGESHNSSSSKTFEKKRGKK
Kind of assay: Mps-1 kinase assay (TR-FRET). Type of assay: biochemical. The conditions noted are these: Mps-1 TR-FRET kinase assay; avg; read-out: Mps1 avg (IC50 [mol/l]). Summed up: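 GST-tagged full-length recombinant human Mps-1 (~0.5 nM) pre-incubated 15 min with compound, then reacted 60 min at 22 °C with 10 μM ATP and 1 μM biotinylated peptide in Hepes pH 7.7 buffer. EDTA-stopped; TR-FRET (Eu anti-phospho-Ser/Thr to SA-XLent) 665/620 nm ratio normalised to no-inhibitor and no-enzyme controls.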
`Cc1nsc(Nc2cnc(C(F)(F)F)cn2)c1C(=O)Nc1ccc(OCCCNCC(F)(F)F)nc1` [Example 292, 3-methyl-N-(6-{3-[(2,2,2-trifluoroethyl)amino]propoxy}pyridin-3-yl)-5-{[5-(trifluoromethyl)pyrazin-2-yl]amino}-1,2-thiazole-4-carboxamide]: the IC50 is > 20 µM. As to `Cc1nsc(Nc2cnc(C(F)(F)F)cn2)c1C(=O)Nc1ccc(OCCCNCC(F)F)nc1` [Example 293, N-(6-{3-[(2,2-difluoroethyl)amino]propoxy}pyridin-3-yl)-3-methyl-5-{[5-(trifluoromethyl)pyrazin-2-yl]amino}-1,2-thiazole-4-carboxamide], the IC50 is > 20 µM. With `Cc1nsc(Nc2cnc(C(F)(F)F)cn2)c1C(=O)Nc1ccc(OCCCNCCC(F)(F)F)nc1` [Example 294, 3-methyl-5-{[5-(trifluoromethyl)pyrazin-2-yl]amino}-N-(6-{3-[(3,3,3-trifluoropropyl)amino]propoxy}pyridin-3-yl)-1,2-thiazole-4-carboxamide], the IC50 is > 20 µM. Under `Cc1nsc(Nc2cnc(C(F)(F)F)cn2)c1C(=O)Nc1ccc(OC2CCN(CCF)C2)nc1` (centres unmarked) [Example 295, N-(6-{[1-(2-fluoroethyl)pyrrolidin-3-yl]oxy}pyridin-3-yl)-3-methyl-5-{[5-(trifluoromethyl)pyrazin-2-yl]amino}-1,2-thiazole-4-carboxamide] stands > 20 µM; under `Cc1nsc(Nc2cnc(C(F)(F)F)cn2)c1C(=O)Nc1ccc(OC2CCN(CC(F)F)C2)nc1` (centres unmarked) [Example 296, N-(6-{[1-(2,2-difluoroethyl)pyrrolidin-3-yl]oxy}pyridin-3-yl)-3-methyl-5-{[5-(trifluoromethyl)pyrazin-2-yl]amino}-1,2-thiazole-4-carboxamide], > 20 µM. As for `Cc1nsc(Nc2cnc(C(F)(F)F)cn2)c1C(=O)Nc1ccc(OC2CCN(CC(F)(F)F)C2)nc1` (centres unmarked) [Example 297, 3-methyl-N-(6-{[1-(2,2,2-trifluoroethyl)pyrrolidin-3-yl]oxy}pyridin-3-yl)-5-{[5-(trifluoromethyl)pyrazin-2-yl]amino}-1,2-thiazole-4-carboxamide], the IC50 came to 12 µM. Next, `Cc1nsc(Nc2cnc(C(F)(F)F)cn2)c1C(=O)Nc1ccc(OC2CCN(CCC(F)(F)F)C2)nc1` (centres unmarked) [Example 298, 3-methyl-5-{[5-(trifluoromethyl)pyrazin-2-yl]amino}-N-(6-{[1-(3,3,3-trifluoropropyl)pyrrolidin-3-yl]oxy}pyridin-3-yl)-1,2-thiazole-4-carboxamide]: > 20 µM. Under `Cc1nsc(Nc2cnc(C(F)(F)F)cn2)c1C(=O)Nc1ccc(N(C)C)c(OCCCN(C)CC(F)(F)F)c1` [Example 299, N-[4-(dimethylamino)-3-{3-[methyl(2,2,2-trifluoroethyl)amino]propoxy}phenyl]-3-methyl-5-{[5-(trifluoromethyl)pyrazin-2-yl]amino}-1,2-thiazole-4-carboxamide] stands > 20 µM; under `Cc1nsc(Nc2cnc(C(F)(F)F)cn2)c1C(=O)Nc1ccc(N(C)C)c(OCCCN(C)CCC(F)(F)F)c1` [Example 300, N-[4-(dimethylamino)-3-{3-[methyl(3,3,3-trifluoropropyl)amino]propoxy}phenyl]-3-methyl-5-{[5-(trifluoromethyl)pyrazin-2-yl]amino}-1,2-thiazole-4-carboxamide], > 20 µM; under `Cc1nsc(Nc2cnc(C(F)(F)F)cn2)c1C(=O)Nc1ccc(F)c(OCCCN(C)CC(F)F)c1` [Example 301, N-(3-{3-[(2,2-difluoroethyl)(methyl)amino]propoxy}-4-fluorophenyl)-3-methyl-5-{[5-(trifluoromethyl)pyrazin-2-yl]amino}-1,2-thiazole-4-carboxamide], > 20 µM.

As for `Cc1nsc(Nc2cnc(C(F)(F)F)cn2)c1C(=O)Nc1ccc(F)c(OCCCN(C)CC(F)(F)F)c1` [Example 302, N-(4-fluoro-3-{3-[methyl(2,2,2-trifluoroethyl)amino]propoxy}phenyl)-3-methyl-5-{[5-(trifluoromethyl)pyrazin-2-yl]amino}-1,2-thiazole-4-carboxamide], the IC50 is > 20 µM. Next, `Cc1nsc(Nc2cnc(C(F)(F)F)cn2)c1C(=O)Nc1ccc(F)c(OCCCN(C)CCC(F)(F)F)c1` [Example 303, N-(4-fluoro-3-{3-[methyl(3,3,3-trifluoropropyl)amino]propoxy}phenyl)-3-methyl-5-{[5-(trifluoromethyl)pyrazin-2-yl]amino}-1,2-thiazole-4-carboxamide]: ≥ 20 µM; `Cc1nsc(Nc2cncc(C(F)(F)F)n2)c1C(=O)Nc1ccc(OC2CCN(CCC(F)(F)F)CC2)nc1` [Example 304, 3-methyl-5-{[6-(trifluoromethyl)pyrazin-2-yl]amino}-N-(6-{[1-(3,3,3-trifluoropropyl)piperidin-4-yl]oxy}pyridin-3-yl)-1,2-thiazole-4-carboxamide]: > 20 µM; `Cc1nsc(Nc2cnc(C(F)(F)F)cn2)c1C(=O)Nc1ccc(OCCNCC(F)F)nc1` [Example 305, N-(6-{2-[(2,2-difluoroethyl)amino]ethoxy}pyridin-3-yl)-3-methyl-5-{[5-(trifluoromethyl)pyrazin-2-yl]amino}-1,2-thiazole-4-carboxamide]: ≥ 20 µM. Under `Cc1nsc(Nc2cnc(C(F)(F)F)cn2)c1C(=O)Nc1ccc(F)c(OCCCNCC(F)(F)F)c1` [Example 306, N-(4-fluoro-3-{3-[(2,2,2-trifluoroethyl)amino]propoxy}phenyl)-3-methyl-5-{[5-(trifluoromethyl)pyrazin-2-yl]amino}-1,2-thiazole-4-carboxamide] stands ≥ 20 µM. Next, `Cc1nsc(Nc2cnc(C(F)(F)F)cn2)c1C(=O)Nc1ccc(F)c(OCCCNCCC(F)(F)F)c1` [Example 307, N-(4-fluoro-3-{3-[(3,3,3-trifluoropropyl)amino]propoxy}phenyl)-3-methyl-5-{[5-(trifluoromethyl)pyrazin-2-yl]amino}-1,2-thiazole-4-carboxamide]: ≥ 20 µM; `Cc1nsc(Nc2cnc(C(F)(F)F)cn2)c1C(=O)Nc1ccc(F)c(OCC2CCN(CC(F)F)CC2)c1` [Example 308, N-(3-{[1-(2,2-difluoroethyl)piperidin-4-yl]methoxy}-4-fluorophenyl)-3-methyl-5-{[5-(trifluoromethyl)pyrazin-2-yl]amino}-1,2-thiazole-4-carboxamide]: ≥ 20 µM. For `Cc1nsc(Nc2cnc(C(F)(F)F)cn2)c1C(=O)Nc1ccc(F)c(OCC2CCN(CCF)CC2)c1` [Example 309, N-(4-fluoro-3-{[1-(2-fluoroethyl)piperidin-4-yl]methoxy}phenyl)-3-methyl-5-{[5-(trifluoromethyl)pyrazin-2-yl]amino}-1,2-thiazole-4-carboxamide], the IC50 is ≥ 20 µM. Next, `Cc1nsc(Nc2cnc(C(F)(F)F)cn2)c1C(=O)Nc1ccc(F)c(OCC2CCN(CCC(F)(F)F)CC2)c1` [Example 311, N-(4-fluoro-3-{[1-(3,3,3-trifluoropropyl)piperidin-4-yl]methoxy}phenyl)-3-methyl-5-{[5-(trifluoromethyl)pyrazin-2-yl]amino}-1,2-thiazole-4-carboxamide]: > 20 µM. Under `Cc1nsc(Nc2cnc(C(F)(F)F)cn2)c1C(=O)Nc1ccc(F)c(OCC2CCN(C(CF)CF)CC2)c1` [Example 312, N-(3-{[1-(1,3-difluoropropan-2-yl)piperidin-4-yl]methoxy}-4-fluorophenyl)-3-methyl-5-{[5-(trifluoromethyl)pyrazin-2-yl]amino}-1,2-thiazole-4-carboxamide] stands ≥ 20 µM. Consider `Cc1nsc(Nc2cnc(C(F)(F)F)cn2)c1C(=O)Nc1ccc(OC2CCN(C(CF)CF)C2)nc1` (centres unmarked) [Example 313, N-(6-{[1-(1,3-difluoropropan-2-yl)pyrrolidin-3-yl]oxy}pyridin-3-yl)-3-methyl-5-{[5-(trifluoromethyl)pyrazin-2-yl]amino}-1,2-thiazole-4-carboxamide], for which the IC50 is ≥ 20 µM.

Regarding `Cc1nsc(Nc2cnc(C(F)(F)F)cn2)c1C(=O)Nc1ccc(F)c(OC2CCN(CC(F)F)C2)c1` (centres unmarked) [Example 314, N-(3-{[1-(2,2-difluoroethyl)pyrrolidin-3-yl]oxy}-4-fluorophenyl)-3-methyl-5-{[5-(trifluoromethyl)pyrazin-2-yl]amino}-1,2-thiazole-4-carboxamide], the IC50 is ≥ 20 µM. Under `Cc1nsc(Nc2cnc(C(F)(F)F)cn2)c1C(=O)Nc1ccc(F)c(OC2CCN(CC(F)(F)F)C2)c1` (centres unmarked) [Example 315, N-(4-fluoro-3-{[1-(2,2,2-trifluoroethyl)pyrrolidin-3-yl]oxy}phenyl)-3-methyl-5-{[5-(trifluoromethyl)pyrazin-2-yl]amino}-1,2-thiazole-4-carboxamide] stands ≥ 20 µM.
